Test in all cases: NCI tumour cell line growth inhibition, 48 h
Assay [1] deals with MDA-MB-231 breast.
Assay [2] relates to HS 578T breast.
Assay [3] concerns SF-539 CNS.
Assay [4] concerns HOP-62 NSCLC.
The test system of assay [5] is SK-MEL-2 melanoma.
Assay [6] relates to COLO 205 colon.
Assay [7] relates to DU-145 prostate.
Assay [8] relates to A549 NSCLC.
Assay [9] has as its system PC-3 prostate.
Assay [10] concerns SNB-75 CNS.

This passage reports GI50 and TGI results from PubChem BioAssay (NCI).

SMILES strings stand for the structures.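 All cell lines were grown in 96-well plates and treated with compound for 48 hours. Here, GI50 denotes the concentration required for 50% inhibition of growth. The concentration for full growth arrest is given as TGI.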

Turning to `Cc1ccc(Cl)c(Nc2ccccc2C(=O)O)c1Cl`, the GI50 in [1] was 32.1 µM; in [2], 25.7 µM; in assay [3] it was 23.6 µM; in assay [4], 31.3 µM; in assay [5] it was 26.3 µM; in assay [6], 22.2 µM. Further, the results for the GI50 in assay [7], in [8] and in assay [9] were 28.9 µM, 30.4 µM and 29.9 µM, respectively. Besides, the TGI in [1] was > 100 µM; in [2], > 100 µM; in [3] it was 51.3 µM; in assay [4], > 100 µM; in assay [5] it was 76 µM; in [6], 43 µM. The TGI in assay [7] was 71.8 µM; in assay [8], > 100 µM; in assay [9], > 100 µM.
Turning to `OCc1ccc(N2CCc3ccccc3C2)cc1Cl`, the GI50 was 12.4 µM in [1]; 32.6 µM in assay [2]; 41.9 µM in [3]; 0.0222 µM in assay [4]; 15.9 µM in [10]; 0.0136 µM in [6]. The values for the GI50 in assay [7], in assay [8] and in assay [9] were 2.38 µM, 0.0604 µM and 17.2 µM, respectively. Also, the TGI in [1] was 40.8 µM; in assay [2], > 89.8 µM; in assay [3], > 100 µM; in [4], 24.7 µM; in assay [10], 57.7 µM; in assay [6] it was 0.0619 µM. For the same molecule, the TGI in [7] was 22.3 µM; in assay [8], 7.59 µM; in assay [9], > 62.3 µM.
Regarding `O=C1c2cc([N+](=O)[O-])ccc2-c2ccc3c4ccc5c6c(ccc(c7ccc1c2c73)c64)C(=O)c1cc([N+](=O)[O-])ccc1-5`, the TGI in [1], in assay [2], in assay [4], in [5], in [10] and in assay [6] was > 100 µM each time. Further, the TGI in [7], in assay [8] and in assay [9] was > 100 µM each time.
On to `NC(N)=N/N=C/c1ccc(-c2ccc(-c3cc(Cl)cc(Cl)c3)s2)cc1`, for which the GI50 in [1] is 1.77 µM; in assay [2], 1.78 µM; in assay [3] it was 1.65 µM; in assay [4] it was 1.79 µM; in assay [5], 2.08 µM; in [6], 1.49 µM. Moreover, the GI50 was 1.74 µM in [7], 2.15 µM in [8] and 1.58 µM in assay [9]. Further, the TGI in assay [1] amounted to 3.36 µM; in assay [2], 4.05 µM; in assay [3], 3.1 µM; in assay [4], 4.05 µM; in assay [5] it was 4.77 µM; in assay [6], 3.88 µM. Besides, the values for the TGI in [7], in [8] and in [9] were 3.18 µM, 4.99 µM and 3.16 µM, respectively.
On to `Cc1ccc(NC(=O)c2sc3nc4c(cc3c2N)C(=O)CCC4)cc1C`, for which the GI50 in [1] is 1.65 µM; in assay [2] it was 0.442 µM; in assay [4], 0.733 µM; in assay [5], 0.464 µM; in [10], 0.313 µM; in assay [6], 0.309 µM. Further, the GI50 is 0.673 µM in [7], 0.704 µM in assay [8] and 0.607 µM in [9]. Further, the TGI is > 100 µM in assay [1]; > 100 µM in assay [2]; > 100 µM in [4]; > 100 µM in [5]; > 100 µM in [10]; 0.936 µM in assay [6]. Moreover, the TGI in assay [7], in assay [8] and in assay [9] was > 100 µM throughout.
For `COc1ccc(C2C=C(c3ccc4c(c3)OCO4)Oc3c2c(=O)oc2ccccc32)cc1OC` (configuration not stated), the TGI is > 100 µM in assay [1]; > 100 µM in assay [2]; 1.81 µM in assay [3]; > 100 µM in assay [4]; 34.2 µM in [10]; > 100 µM in [6]. Also, the TGI in [7], in assay [8] and in assay [9] was > 100 µM each time.
As for `c1ccc2cc(C[n+]3ccn(CCCCCCCCCCn4cc[n+](Cc5ccc6ccccc6c5)c4)c3)ccc2c1`, the GI50 in assay [1] is 1.33 µM; in assay [2], 1.03 µM; in assay [3], 1.19 µM; in assay [4], 1.09 µM; in assay [5], 1.72 µM; in assay [6] it was 0.411 µM. For the same molecule, the GI50 in [7] is 1.06 µM; in [9], 1.19 µM. For the same molecule, the TGI in [1] was 5.3 µM; in assay [2], 3.63 µM; in assay [3] it was 6.54 µM; in assay [4], 7.24 µM; in [5], 5.2 µM; in assay [6], 1.68 µM. The values for the TGI in [7] and in [9] were 14.1 µM and 7.3 µM, respectively.
In the case of `COc1cc(/C=C/C(=O)N2CCN(C(=O)c3cc(OC)c(OC)c(OC)c3)CC2)ccc1OCCCOc1cc2c(cc1OC)C(=O)N1CCC[C@H]1C=N2`, the GI50 in assay [2] is 0.31 µM; in assay [3] it was 0.248 µM; in assay [4] it was 0.326 µM; in assay [5], 0.26 µM; in assay [10], 0.241 µM; in [6], 0.19 µM. Also, the GI50 in assay [7] was 0.351 µM; in [8], 0.953 µM; in [9], 0.506 µM. For the same molecule, the TGI in assay [2] stood at 0.841 µM; in [3], 0.578 µM; in assay [4], 0.933 µM; in assay [5], 0.703 µM; in assay [10], 0.642 µM; in assay [6], 0.476 µM. In addition, the TGI in assay [7] is 11.5 µM; in assay [8], 9.26 µM; in assay [9], > 34.3 µM.
As for `COc1ccc(/C=C/C(=O)c2ccc(OC)c(OC)c2)cc1O`, the GI50 in assay [1] was 4.76 µM; in assay [2] it was 11 µM; in [3], 2.49 µM; in assay [4], 3.61 µM; in assay [5] it was 14.9 µM; in assay [6] it was 12.5 µM. The GI50 is 2.34 µM in assay [7], 2.99 µM in assay [8] and 12.8 µM in assay [9]. The TGI in assay [1] stood at 31.8 µM; in [2], 90.9 µM; in [3], 7.34 µM; in assay [4] it was 14.5 µM; in assay [5], 32.9 µM; in assay [6], 25 µM. Besides, the TGI in [7] amounted to 5.64 µM; in assay [8] it was 15.1 µM; in assay [9] it was 39.6 µM.
